Test results published in patent publication US4206215A, “Antimicrobial bis-[4-(substituted-amino)-1-pyridinium]alkanes” (Sterling Drug Inc., priority 1977, dated 1980).
Read-outs that look alike come from different tables or passages of the source.

Columns and labels:
[1] = test system: S. Aureus Smith; assay: In vitro antibacterial activity, MIC (modified Autotiter method); type: cell-based, Staphylococcus aureus; conditions: 18-20 hours at 37° C.; for MIC: Staphylococcus aureus, 20 h, read-out: MIC S. Aureus Smith
Procedure, shortened: (§1)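 MIC values come from a twofold dilution series spanning final concentrations of 500 down to 0.06 mcg./ml. Dilutions were prepared automatically in sterile water from a 1,000 mcg./ml. solution before inoculated double-strength glucose-containing semisynthetic medium was added.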

[2] = test system: K. pneum. 39645; assay: as above; type: cell-based, Klebsiella pneumoniae; conditions: 18-20 hours at 37° C.
Procedure, shortened: as §1

[3] = test system: T. menta. 9129; assay: In vitro antifungal activity, MIC (modified Autotiter method); type: cell-based, Trichophyton mentagrophytes; conditions: 18-20 hours at 37° C.; for MIC: Trichophyton mentagrophytes, 20 h, read-out: MIC T. menta. 9129
Procedure, shortened: as §1

[4] = test system: Ps. aerug. MGH-2; assay: In vitro antibacterial activity, MIC (modified Autotiter method); type: cell-based, Pseudomonas aeruginosa; conditions: 18-20 hours at 37° C.; for MIC: Pseudomonas aeruginosa, 20 h, read-out: MIC Ps. aerug. MGH-2
Procedure, shortened: as §1

[5] = test system: A. niger 16404; assay: In vitro antifungal activity, MIC (modified Autotiter method); type: cell-based, Aspergillus niger; conditions: 18-20 hours at 37° C.
Procedure, shortened: as §1

[6] = test system: S. pyogen. C203; assay: In vitro antibacterial activity, MIC (modified Autotiter method); type: cell-based, Streptococcus pyogenes; conditions: 18-20 hours at 37° C.; for MIC: Streptococcus pyogenes, 20 h, read-out: MIC S. pyogen. C203
Procedure, shortened: as §1

[7] = test system: S. Aureus ATCC 6538; assay: Effect of serum on bacteriostatic activity (serial tube dilution test); type: cell-based, Staphyloccocus aureus; conditions: for MIC: Staphylococcus aureus, ATCC6538
Protocol: (§2) Antibacterial effectiveness in the presence of serum was determined for representative examples by the standard serial tube dilution test wherein paired comparisons of minimum inhibitory concentrations (MIC) were determined in the absence and in the presence of heat inactivated (30 min. at 56° C.) horse serum (40%) in the test medium. The results are expressed as the fold increase in MIC (mcg./ml.) versus Staphyloccocus aureus and Escherichia coli caused by the presence of serum and are presented in Table B hereinbelow.

[8] = test system: P. mirab. MGH-1; assay: In vitro antibacterial activity, MIC (modified Autotiter method); type: cell-based, Proteus mirabilis; conditions: 18-20 hours at 37° C.
Procedure, shortened: as §1

[9] = test system: C. albicans 10231; assay: In vitro antifungal activity, MIC (modified Autotiter method); type: cell-based, Candida albicans; conditions: 18-20 hours at 37° C.
Procedure, shortened: as §1

[10] = test system: C. albicans Wisc.; assay: as above; type: cell-based, Candida albicans; conditions: 18-20 hours at 37° C.
Procedure, shortened: as §1

[11] = test system: E. coli AB1932-1; assay: In vitro antibacterial activity, MIC (modified Autotiter method); type: cell-based, Escherichia coli; conditions: 18-20 hours at 37° C.
Procedure, shortened: as §1

[12] = test system: E. coli Vogel; assay: as above; type: cell-based, Escherichia coli; conditions: 18-20 hours at 37° C.; for MIC: Escherichia coli, 20 h, read-out: MIC E. coli Vogel
Procedure, shortened: as §1

[13] = test system: E. coli 100/B22; assay: as above; type: cell-based, Escherichia coli; conditions: for MIC: Escherichia coli, 100/B22, 20 h, read-out: MIC E. coli 100/B22, 18-20 hours at 37° C.
Procedure, shortened: as §1

[14] = Acute oral toxicity (ALD50); type: in vivo; conditions: mouse, in vivo, po, mice, suspension in 1% gum tragacanth; read-out: 7-Day ALD50
Protocol: (§3) The acute oral toxicity (ALD50) of several representative examples was determined as follows: Groups of 3 young adult male Swiss-Webster strain albino mice were fasted approximately 4 hours before medication and then medicated once orally by stomach tube.

[15] = test system: young adult male Swiss-Webster strain albino mice; assay: Acute oral toxicity (ALD50); type: in vivo; conditions: for Mortality 7 Days / Mortality 24 Hrs: suspension in 1% G.T.
Protocol: as §3

[16] = test system: E. Coli ATCC 8739; assay: Effect of serum on bacteriostatic activity (serial tube dilution test); type: cell-based, Escherichia coli; conditions: for MIC: Escherichia coli, ATCC8739
Protocol: as §2

[17] = test system: Streptococcus mutans OMZ-61; assay: Dental plaque-preventive effectiveness in the presence of sterile human saliva (50%); type: cell-based; conditions: 50% sterile human saliva
Protocol: The dental plaque preventive activity of certain of the compounds of the present invention was determined by measuring the ability of these compounds to inhibit the production of dental plaque by Streptococcus mutans OMZ-61 as follows:
A culture medium for the plaque-producing Streptococcus mutans OMZ-61 containing 1.5 g. of BBL beef extract, 5 g. of sodium chloride, 10 g. of dehydrated trypticase, 5 g. of sucrose and sufficient distilled water to give a total volume of 1000 ml. is adjusted to pH 7.0 and sterilized by membrane filtration. The medium is dispensed aseptically in 10-ml. aliquots into 150×16 mm. test tubes and stored at refrigeration temperature until used.
Two concentrations of the compound to be tested are prepared by dissolving 100 mg. of the compound in 1 ml. of distilled water with the aid of sufficient 0.1 N sodium hydroxide, 10% dimethylsulfoxide or 10% N,N-dimethylformamide and diluting the resulting solution to 10 ml. with distilled water. This 1.0% solution and a 1:10 dilution in distilled water (0.1%) are sterilized by membrane filtration before use.
A sterile piece of plaque-free natural tooth enamel or synthetic hydroxylapatite is suspended in each concentration of compound for two 1-minute periods, each followed by a 1-minute air drying period. Each piece is then suspended and agitated for 5 minutes in individual test tubes containing sterile distilled water (rinse). They are then suspended in 10 ml. of liquid beef extract medium to which has been added 0.3 ml. of a 24-hr. anaerobic culture of Streptococcus mutans. The tubes containing the "treated" hydroxylapatite and the Streptococcus mutans are then incubated anaerobically at 37° C. for 24 hours. The same process of two 1-minute soaks in the solution of compound, each followed by 1 minute of air drying and the final 5-minute rinse is repeated before once again suspending the hydroxylapatite in a fresh tube containing 10 ml. of beef extract medium and 0.3 ml. of inoculum. At the end of the second 24-hour period, each piece of hydroxylapatite is rinsed for 1 minute in 3 successive tubes of distilled water. These are then suspended for 1 minute in a solution of F, D & C Red No. 3 dye. This staining procedure is used in order to identify more easily the development of plaque after the 48-hour period of exposure to the plaque-producing organism. The staining period is followed by another 10-second rinse to remove excess dye. Any plaque formation stains a brilliant pink. […] Active compounds are tested at successively lower doses in order to determine the minimum effective concentration. On some occasions, the interference of plaque production is caused by the inhibition of growth of the organism in the culture medium because the compound has been leached from the hydroxylapatite to produce an antibacterial level in the medium. When this occurs, the compound is tested at lower concentrations until the growth of the organism in the surrounding medium is equal to that in the nonmedicated control culture. Plaque may or may not be formed at these lower concentrations.
Dental plaque-preventive effectiveness in the presence of sterile human saliva (50%) was determined for representative examples.

[18] = 1250 mg/kg (so in the source) oral

SMILES	MIC [1]	MIC [3]	MIC [4]	MIC [6]	MIC [12]	MIC [13]	LD50 at 168 h [14]	Mortality 7 Days ([15]; 125 mg/kg oral)	Mortality 24 Hrs ([15]; 125 mg/kg oral)	Mortality 7 Days ([15]; 250 mg/kg oral)	Mortality 24 Hrs ([15]; 250 mg/kg oral)	Mortality 7 Days ([15]; 500 mg/kg oral)	Mortality 24 Hrs ([15]; 500 mg/kg oral)	Mortality 7 Days ([15]; 1000 mg/kg oral)	Mortality 24 Hrs ([15]; 1000 mg/kg oral)	MIC K. pneum. 39645 [2]	MIC A. niger 16404 [5]	MIC P. mirab. MGH-1 [8]	MIC C. albicans 10231 [9]	MIC C. albicans Wisc. [10]	further results
CCCCC(CC)CNc1cc[n+](CCCCCCCCCCCC[n+]2ccc(NCC(CC)CCCC)cc2)cc1 (stereo not shown) [Example 41C, 1,12-bis-[4-(2-ethylhexylamino)-1-pyridinium]dodecane dibromide]	0.5 µg/mL	1 µg/mL	3.9 µg/mL	0.5 µg/mL	1 µg/mL	1 µg/mL	> 1000 mg/kg	0/3	0/3	0/3	0/3	0/3	0/3	0/3	0/3	–	–	–	–	–	MIC ([2]; Klebsiella pneumoniae, 20 h, read-out: MIC K. pneum. 39645): 1.95 µg/mL; MIC ([5]; Aspergillus niger, 16404, 20 h, read-out: MIC A. niger 16404): 3.9 µg/mL; Fold Increase in MIC S. Aureus ATCC 6538 ([7]; 40% vs 0% horse serum): 32 fold; MIC ([7]; 40% heat inactivated horse serum, read-out: MIC S. Aureus ATCC 6538 40% Serum): 7.8 µg/mL; MIC ([7]; read-out: MIC S. Aureus ATCC 6538 0% Serum): 0.25 µg/mL; MIC ([8]; Proteus mirabilis, 20 h, read-out: MIC P. mirab. MGH-1): 3.9 µg/mL; MIC ([9]; Candida albicans, 10231, 20 h, read-out: MIC C. albicans 10231): 1 µg/mL; MIC ([10]; Candida albicans, 20 h, read-out: MIC C. albicans Wisc.): 1 µg/mL; MIC ([11]; Escherichia coli, AB19321, 20 h, read-out: MIC E. coli AB1932-1): 1 µg/mL; Fold Increase in MIC E. Coli ATCC 8739 ([16]; 40% vs 0% horse serum): 64 fold; MIC ([16]; 40% heat inactivated horse serum, read-out: MIC E. Coli ATCC 8739 40% Serum): 62.5 µg/mL; MIC ([16]; read-out: MIC E. Coli ATCC 8739 0% Serum): 1 µg/mL
CCCCCCCNc1cc[n+](CCCCCCCCCCCC[n+]2ccc(NCCCCCCC)cc2)cc1 [Example 4, 1,12-bis-[4-(heptylamino)-1-pyridinium]dodecane dichloride]	–	–	–	–	–	–	–	0/3	0/3	–	–	0/3	0/3	0/3	0/3	1.95 µg/mL	7.8 µg/mL	1.95 µg/mL	1.95 µg/mL	1.95 µg/mL	MIC S. Aureus Smith [1]: 0.25 µg/mL; MIC T. menta. 9129 [3]: 0.5 µg/mL; MIC Ps. aerug. MGH-2 [4]: 3.9 µg/mL; Dental Plaque Preventive Activity in 50% saliva Minimum Effective Conc. (%) [17]: Ca. 0.005%; MIC S. pyogen. C203 [6]: 1.0 µg/mL; MIC E. coli AB1932-1 [11]: 1.0 µg/mL; MIC E. coli Vogel [12]: 0.5 µg/mL; MIC E. coli 100/B22 ([13]; 18-20 hours at 37° C.): 0.5 µg/mL; Mortality 7 Days [15, 18]: 0/3; Mortality 24 Hrs [15, 18]: 0/3; 7-Day ALD50 ([15]; oral, suspension in 1% gum tragacanth, 10080 min): > 1000 mg/kg
CCCCCCCNc1cc[n+](CCCCCCCCCCCCCC[n+]2ccc(NCCCCCCC)cc2)cc1 [Example 2, 1,14-bis-[4-(heptylamino)-1-pyridinium]tetradecane dichloride]	1 µg/mL	1 µg/mL	1.95 µg/mL	1 µg/mL	1.95 µg/mL	1 µg/mL	1000 mg/kg	0/3	0/3	1/3	0/3	0/3	0/3	1/3	0/3	3.9 µg/mL	7.8 µg/mL	3.9 µg/mL	3.9 µg/mL	7.8 µg/mL	MIC E. coli AB1932-1 [11]: 1.0 µg/mL
